Laboratory results: patent US5830869A, “Thiadiazole amide MMP inhibitors” (priority 1997, dated 1998)

biological target: Stromelysin (Homo sapiens, UniProt P08254); test: Stromelysin inhibition, in vitro particle concentration fluorescence assay (TABLE 1, MMP Inhibition Constants); type: biochemical; settings: fluorescein/biotin substrate, MMP buffer pH 7.5, room temperature, 15 min preincubation with enzyme, 1-3 h with substrate
Method: Inhibitory activity is evaluated in one or more of the MMP enzymes (stromelysin, gelatinase, and collagenase) in vitro using particle concentration fluorescence assay. An inhibitor binds to MMP enzymes which prevents the degradation of a substrate by stromelysin, gelatinase, or collagenase. The substrate has attached to it a fluorescein and a biotin moiety. The intact substrate then binds to an avidin-coated particle via the biotin moiety. Once the particle is washed and dried, a fluorescent signal is generated since the fluorescent group is attached to the particle. Without an inhibitor present, the substrate is degraded by MMP enzymes and the fluorescein group is removed, therefore, no fluorescent signal can be detected. Testing compounds are dissolved in DMSO to the desired concentration, then the solutions are diluted to 1:5 with MMP buffer (50 mM Tris-HCl, pH 7.5; 150 mM NaCl; 0.02% NaN3). Serial two-fold dilutions of each compound are prepared. A concentrated, activated enzyme solution is transferred into each plate of the testing compounds, and the mixture is incubated at room temperature for 15 minutes. Thawed MMP substrate is then added into all plates, and the plates are incubated in the dark for 1-3 hours at room temperature. At this point, the substrate mixture is mixed with 0.1% avidin-coated polystyrene particles. After 15 minutes, the fluorescence values are measured following filtration and washing of the beads. Ki values are then calculated.

Stromelysin, sequence (P08254 100-477): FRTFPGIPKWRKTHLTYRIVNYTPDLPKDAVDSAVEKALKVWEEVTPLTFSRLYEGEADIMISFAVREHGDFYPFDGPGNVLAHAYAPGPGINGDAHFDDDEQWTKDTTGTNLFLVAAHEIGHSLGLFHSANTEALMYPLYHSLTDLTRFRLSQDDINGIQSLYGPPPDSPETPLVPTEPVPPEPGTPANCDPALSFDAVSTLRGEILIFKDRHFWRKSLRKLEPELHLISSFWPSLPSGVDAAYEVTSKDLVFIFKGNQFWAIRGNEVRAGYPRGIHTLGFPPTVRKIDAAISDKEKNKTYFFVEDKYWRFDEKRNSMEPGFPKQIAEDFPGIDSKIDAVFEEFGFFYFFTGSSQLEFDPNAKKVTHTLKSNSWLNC

| SMILES | Ki |
| --- | --- |
| C=CC[C@H](C(=O)Nc1n[nH]c(=S)s1)[C@@H](CC(C)C)NC(=O)OCc1ccccc1 (relative stereo) [Example 55, (R*,S*)-[2-[[(4,5-dihydro-5-thioxo-1,3,4-thiadiazol-2-yl)amino]carbonyl]-1-(2-methylpropyl)-4-pentenyl]carbamic acid phenylmethyl ester] | 1910 nM |
| CC(C)C[C@@H](NC(=O)OCc1ccccc1)[C@H](Cc1ccccc1)C(=O)Nc1n[nH]c(=S)s1 (relative stereo) [Example 56, (R*,S*)-[1-[2-[(4,5-dihydro-5-thioxo-1,3,4-thiadiazol-2-yl)amino]-oxo-1(phenylmethyl)ethyl]-3-methylbutyl]carbamic acid phenylmethyl ester] | 1700 nM |
| O=C(Nc1n[nH]c(=S)s1)[C@@H]1CC[C@H](C(=O)N(Cc2ccccc2)OCc2ccccc2)C1 (relative stereo) [Example 60, cis-N'-(4,5-dihydro-5-thioxo-1,3,4-thiadiazol-2-yl)-N-(phenylmethoxy)-N-(phenylmethyl)-1,3-cyclopentane dicarboxamide] | 10300 nM |
| O=C(NC(C(=O)Nc1n[nH]c(=S)s1)c1ccccc1)OCc1ccccc1 (stereo not drawn) [Example 1, [2-[(4,5-dihydro-5-thioxo-1,3,4-thiadiazol-2-yl)amino]-2-oxo-1-phenylethyl]carbamic acid, phenylmethyl ester] | 1210 nM |
| O=C(N[C@@H](CCc1ccccc1)C(=O)Nc1n[nH]c(=S)s1)OCc1ccccc1 [Example 2, (S)-[1-[[(4,5-dihydro-5-thioxo-1,3,4-thiadiazol-2-yl)amino]carbonyl]-3-phenylpropyl]carbamic acid phenylmethyl ester] | 13900 nM |
| CC[C@H](C)[C@H](NC(=O)OCc1ccccc1)C(=O)Nc1n[nH]c(=S)s1 [Example 3, [S-(R*,R*)]-[1-[[(4,5-dihydro-5-thioxo-1,3,4-thiadiazol-2-yl)amino]carbonyl]-2-methylbutyl[carbamic acid phenylmethyl ester] | 1240 nM |
| CC[C@H](C)[C@H](NC(=O)OCC1c2ccccc2-c2ccccc21)C(=O)Nc1n[nH]c(=S)s1 [Example 4, [S-(R*,R*)]-[1-[[(4,5-dihydro-5-thioxo-1,3,4-thiadiazol-2-yl)amino]carbonyl]-2-methylbutyl]carbamic acid 9H-fluoren-9-yl-methyl ester] | 950 nM |
| CCCCC(NC(=O)OCc1ccccc1)C(=O)Nc1n[nH]c(=S)s1 (stereo not drawn) [Example 5, [1-[[(4,5-dihydro-5-thioxo-1,3,4-thiadiazol-2-yl)amino]carbonyl]pentyl]carbamic acid phenylmethyl ester] | 2420 nM |
| CC(C)(C)[C@H](NC(=O)OCc1ccccc1)C(=O)Nc1n[nH]c(=S)s1 [Example 6, (S)-[1-[[(4,5-dihydro-5-thioxo-1,3,4-thiadiazol-2-yl)amino]carbonyl]-2,2-dimethylpropyl]carbamic acid phenylmethyl ester] | 530 nM |
| CCC[C@H](NC(=O)OCc1ccccc1)C(=O)Nc1n[nH]c(=S)s1 [Example 7, (S)-[1-[[(4,5-dihydro-5-thioxo-1,3,4-thiadiazol-2-yl)amino]carbonyl]butyl]carbamic acid phenylmethyl ester] | 2310 nM |
| O=C(NC(COCc1ccccc1)C(=O)Nc1n[nH]c(=S)s1)OCc1ccccc1 (stereo not drawn) [Example 8, [2-[(4,5-dihydro-5-thioxo-1,3,4-thiadiazol-2-yl)amino]-2-oxo-1-[(phenylmethoxy)methyl]ethyl]carbamic acid phenylmethyl ester] | 8060 nM |
| O=C(NC(CSCc1ccccc1)C(=O)Nc1n[nH]c(=S)s1)OCc1ccccc1 (stereo not drawn) [Example 9, [2-[(4,5-dihydro-5-thioxo-1,3,4-thiadiazol-2-yl)amino]-2-oxo-1-[[(phenylmethyl)thio]methyl]ethyl]carbamic acid phenylmethyl ester] | 9450 nM |
| CCCCCCCC(NC(=O)OCc1ccccc1)C(=O)Nc1n[nH]c(=S)s1 (stereo not drawn) [Example 10, [1-[[(4,5-dihydro-5-thioxo-1,3,4-thiadiazol-2-yl)amino]carbonyl]octyl]carbamic acid phenylmethyl ester] | 6320 nM |
| O=C(N[C@@H](CC1CCCCC1)C(=O)Nc1n[nH]c(=S)s1)OCc1ccccc1 [Example 11] | 6100 nM |
| O=C(N[C@H](C(=O)Nc1n[nH]c(=S)s1)C1CCCCC1)OCc1ccccc1 [Example 12, (S)-[1-(cyclohexyl)-2-[(4,5-dihydro-5-thioxo-1,3,4-thiadiazol-2-yl)amino]-2-oxoethyl]carbamic acid phenylmethyl ester] | 840 nM |
| CC(=O)NC(C(=O)Nc1n[nH]c(=S)s1)c1ccccc1 (stereo not drawn) [Example 13, α-(acetylamino)-N-(4,5-dihydro-5-thioxo-1,3,4-thiadiazol-2-yl)-benzeneacetamide] | 1800 nM |
| O=C(CCc1ccccc1)NC(C(=O)Nc1n[nH]c(=S)s1)c1ccccc1 (stereo not drawn) [Example 14, N-[2-[(4,5-dihydro-5-thioxo-1,3,4-thiadiazol-2-yl)amino]-2-oxo-1-phenylethyl]benzenepropanamide] | 640 nM |
| O=C(CCCCc1ccccc1)NC(C(=O)Nc1n[nH]c(=S)s1)c1ccccc1 (stereo not drawn) [Example 15, N-[2-[(4,5-dihydro-5-thioxo-1,3,4-thiadiazol-2-yl)amino]-2-oxo-1-phenylethyl]benzenepentanamide] | 1380 nM |
| O=C(COCc1ccccc1)NC(C(=O)Nc1n[nH]c(=S)s1)c1ccccc1 (stereo not drawn) [Example 16, N-(4,5-dihydro-5-thioxo-1,3,4-thiadiazol-2-yl)-α-[[(phenylmethoxy)acetyl]amino]benzeneacetamide] | 380 nM |
| CC(=O)NCSC(C)(C)C(NC(=O)OCc1ccccc1)C(=O)Nc1n[nH]c(=S)s1 (stereo not drawn) [Example 17, (2-(((acetylamino)methyl)thio)-1-(((4,5-dihydro-5--thioxo-1,3,4-thiadiazol-2-yl)amino)carbonyl)-2-methylpropyl)carbamic acid phenylmethyl ester] | 1770 nM |
| CC(C)(C)OC(=O)NC(C(=O)Nc1n[nH]c(=S)s1)C(C)(C)/C=C\c1ccccc1 (stereo not drawn) [Example 18, (Z)-(1-(((4,5-dihydro-5-thioxo-1,3,4-thiadiazol-2-yl)amino)carbonyl)-2,2-dimethyl-4-phenyl-3-butenyl)carbamic acid 1,1-dimethylethyl ester] | 1800 nM |
| CC(C)(C)OC(=O)NC(C(=O)Nc1n[nH]c(=S)s1)C(C)(C)CCc1ccccc1 (stereo not drawn) [Example 19, (1-(((4,5-dihydro-5-thioxo-1,3,4-thiadiazol-2-yl)amino)carbonyl)-2,2-dimethyl-4-phenylbutyl)carbamic acid 1,1-dimethylethyl ester] | 6200 nM |
| CC(C)(C)OC(=O)NC(C(=O)Nc1n[nH]c(=S)s1)C(C)(C)/C=C/Cc1ccccc1 (stereo not drawn) [Example 20, (E)-(1-(((4,5-dihydro-5-thioxo-1,3,4-thiadiazol-2-yl)amino)carbonyl)-2,2-dimethyl-5-phenyl-3-pentenyl)carbamic acid 1,1-dimethylethyl ester] | 3060 nM |
| CC(C)(C)OC(=O)NC(C(=O)Nc1n[nH]c(=S)s1)C(C)(C)CCCc1ccccc1 (stereo not drawn) [Example 21, (1-(((4,5-dihydro-5-thioxo-1,3,4-thiadiazol-2-yl)amino)carbonyl)-2,2-dimethyl-5-phenylpentyl)carbamic acid 1,1-dimethylethyl ester] | 2720 nM |
| C=CC(C)(C)C(NC(=O)OC(C)(C)C)C(=O)Nc1n[nH]c(=S)s1 (stereo not drawn) [Example 22, (1-(((4,5-dihydro-5-thioxo-1,3,4-thiadiazol-2-yl)amino)carbonyl)-2,2-dimethyl-3-butenyl)carbamic acid 1,1-dimethylethyl ester] | 3510 nM |
| CCC(C)(C)C(NC(=O)OC(C)(C)C)C(=O)Nc1n[nH]c(=S)s1 (stereo not drawn) [Example 23, (1-(((4,5-dihydro-5-thioxo-1,3,4-thiadiazol-2-yl)amino)carbonyl)-2,2-dimethylbutyl)carbamic acid 1,1-dimethylethyl ester] | 2140 nM |
| CC(C)(C)OC(=O)NC(C(=O)Nc1n[nH]c(=S)s1)c1ccccc1 (stereo not drawn) [Example 24, [2-[(4,5-dihydro-5-thioxo-1,3,4-thiadiazol-2-yl)amino]-2-oxo-1-phenylethyl]carbamic acid 1,1-dimethylethyl ester] | 1980 nM |
| CC(C)(C)OC(=O)N[C@@H](Cc1ccc(NC(=O)OCc2ccccc2)cc1)C(=O)Nc1n[nH]c(=S)s1 [Example 25, (S)-[4-[3-[(4,5-dihydro-5-thioxo-1,3,4-thiadiazol-2-yl)amino]-2-[[(1,1-dimethylethoxy)carbonyl]amino]-3-oxopropyl]phenyl]carbamic acid phenylmethyl ester] | 2480 nM |
| CC(C)(C)[C@H](NC(=O)CCc1ccccc1)C(=O)Nc1n[nH]c(=S)s1 [Example 26, (S)-N-[1-[[(4,5-dihydro-5-thioxo-1,3,4-thiadiazol-2-yl)amino]carbonyl]-2,2-dimethylpropyl]benzenpropanamide] | 240 nM |
| CC(C)(C)[C@H](NC(=O)CCc1c(F)c(F)c(F)c(F)c1F)C(=O)Nc1n[nH]c(=S)s1 [Example 27, (S)-N-[1-[[(4,5-dihydro-5-thioxo-1,3,4-thiadiazol-2-yl)amino]carbonyl]-2,2-dimethylpropyl]-2,3,4,5,6-pentafluorobenzenepropanamide] | 910 nM |
